Results taken from article PMC12704298, “Divergent acetyl-CoA binding modes mediate allosteric inhibition of bacterial hybrid-type malic enzymes” (The Journal of Biological Chemistry, 2025).

What was measured:
EcMaeB [1] = biological target: T1, EcMaeB (Escherichia coli, UniProt P76558); assay: Acetyl-CoA IC50 plot against MaeB activity (spectrophotometric NADPH assay); type: biochemical
T1 construct: His-tag (C); made in house; host or cells: E. coli BL21(DE3)
T1 sequence (P76558 1-759): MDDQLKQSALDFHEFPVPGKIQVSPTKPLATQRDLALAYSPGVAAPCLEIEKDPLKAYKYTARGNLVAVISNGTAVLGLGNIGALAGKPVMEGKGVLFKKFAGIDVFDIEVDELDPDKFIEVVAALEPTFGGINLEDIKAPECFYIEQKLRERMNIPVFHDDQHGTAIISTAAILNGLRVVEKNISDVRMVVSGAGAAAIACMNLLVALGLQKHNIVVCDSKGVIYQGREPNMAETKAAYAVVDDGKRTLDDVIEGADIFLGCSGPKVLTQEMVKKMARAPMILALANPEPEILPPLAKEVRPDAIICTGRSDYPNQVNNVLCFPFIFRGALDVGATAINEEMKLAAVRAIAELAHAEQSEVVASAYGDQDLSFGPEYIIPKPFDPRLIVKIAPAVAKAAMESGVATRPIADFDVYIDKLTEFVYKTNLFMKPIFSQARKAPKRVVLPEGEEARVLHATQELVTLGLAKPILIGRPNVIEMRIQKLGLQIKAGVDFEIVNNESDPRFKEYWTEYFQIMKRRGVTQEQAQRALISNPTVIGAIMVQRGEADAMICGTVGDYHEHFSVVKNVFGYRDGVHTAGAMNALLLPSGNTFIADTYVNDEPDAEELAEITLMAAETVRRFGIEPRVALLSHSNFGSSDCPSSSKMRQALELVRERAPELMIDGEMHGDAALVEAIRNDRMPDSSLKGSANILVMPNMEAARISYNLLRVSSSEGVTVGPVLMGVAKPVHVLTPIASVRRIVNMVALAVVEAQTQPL
Procedure: (§1) Spectrophotometric assays were used to monitor the oxidative decarboxylation of L-malate to pyruvate using a SpectraMax M2, UV-Visible spectrophotometer (Molecular Devices) operated by SoftMax Pro Software with kinetic mode. All assays recorded the Δabsorbance at 340 nm (NADPH) at 30 °C. Assays were initiated by the addition of enzyme to the otherwise complete reaction mixture. […] Acetyl-CoA was tested at 5 μM.
(§2) The IC50 plot for Acetyl-CoA against MaeB activity was obtained by varying acetyl-CoA concentrations. The assay was performed in the standard reaction condition with 100 nM final enzyme concentration. The data were fitted to the four-parameter logistic model: v0=Bottom+Top−Bottom/1+([Acetyl-CoA]/IC50)^h where h means the Hill slope value and “Top” and “Bottom” corresponds to the maximum and minimum v0 of the fitted curve, respectively ([81]). Fitting was performed using Rstudio.

BbMaeB-SSB = BbMaeB-SSB (Bdellovibrio bacteriovorus, UniProt A0A1Z3N8R4); assay: as above; type: biochemical, Bdellovibrio bacteriovorus strain SSB218315
Procedure: as §1, §2

EcMaeB [2] = biological target: T1, EcMaeB; assay: Enzyme kinetic parameters (Michaelis-Menten, substrate inhibition, empirical Hill plots); type: biochemical; conditions: EcMaeB; versus malate, not conclusive
Procedure: as §1
(§3) For this substrate inhibition model, x should be fixed. […] The plots shown in Fig. S1F were fitted to the empirical Hill equation: v0=Vmax·[malate]^h/(K0.5h+[malate]^h) where K0.5 indicates the substrate concentration for half-saturation. When h is equal to 1, K0.5 matches Michaelis constant Km.

BbMaeB = biological target: T2, BbMaeB (Bdellovibrio bacteriovorus, UniProt A0A1Z3N8R4); assay: as above; type: biochemical, Bdellovibrio bacteriovorus strain SSB218315; conditions: versus malate
T2 sequence (A0A1Z3N8R4 1-776): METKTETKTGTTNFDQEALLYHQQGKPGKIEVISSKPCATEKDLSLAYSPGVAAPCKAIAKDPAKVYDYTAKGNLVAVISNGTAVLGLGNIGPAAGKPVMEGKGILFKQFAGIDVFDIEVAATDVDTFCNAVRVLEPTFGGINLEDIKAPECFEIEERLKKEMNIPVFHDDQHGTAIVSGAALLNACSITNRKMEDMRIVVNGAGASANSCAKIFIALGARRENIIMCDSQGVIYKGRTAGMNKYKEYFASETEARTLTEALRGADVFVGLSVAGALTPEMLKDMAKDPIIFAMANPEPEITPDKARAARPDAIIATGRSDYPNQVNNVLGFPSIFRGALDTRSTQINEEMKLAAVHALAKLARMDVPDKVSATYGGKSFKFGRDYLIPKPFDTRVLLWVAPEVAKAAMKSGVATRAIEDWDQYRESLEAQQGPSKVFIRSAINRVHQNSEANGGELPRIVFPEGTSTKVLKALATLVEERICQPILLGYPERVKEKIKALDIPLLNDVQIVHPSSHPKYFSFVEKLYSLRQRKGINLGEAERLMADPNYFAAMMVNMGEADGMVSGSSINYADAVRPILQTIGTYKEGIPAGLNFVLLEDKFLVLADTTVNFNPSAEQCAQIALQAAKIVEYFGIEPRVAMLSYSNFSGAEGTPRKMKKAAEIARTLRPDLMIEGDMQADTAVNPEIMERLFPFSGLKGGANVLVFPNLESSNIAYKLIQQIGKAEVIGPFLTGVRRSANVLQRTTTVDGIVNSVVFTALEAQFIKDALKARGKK
Procedure: as §1, §3

EcMaeB R475A/R482A/Y510A = system: T3, EcMaeB R475A/R482A/Y510A; assay: %Activity assay with 5 μM acetyl-CoA; type: biochemical, Escherichia coli
T3 construct: His-tag (C); made in house; host or cells: E. coli BL21(DE3)
Procedure: (§4) Spectrophotometric assays were used to monitor the oxidative decarboxylation of L-malate to pyruvate using a SpectraMax M2, UV-Visible spectrophotometer (Molecular Devices) operated by SoftMax Pro Software with kinetic mode. All assays recorded the Δabsorbance at 340 nm (NADPH) at 30 °C. Assays were initiated by the addition of enzyme to the otherwise complete reaction mixture. […] Acetyl-CoA was tested at 5 μM. The results are presented as “%Activity”: a percentage of the measured activity in the presence of effector compared to the measured activity of MaeB under standard reaction conditions.

EcMaeB R475A/R482A = system: T4, EcMaeB R475A/R482A; assay: %Activity assay with 5 μM acetyl-CoA; type: biochemical, Escherichia coli
T4 construct: His-tag (C); made in house; host or cells: E. coli BL21(DE3)
Procedure: as §4

EcMaeB R475A/Y510A = system: T5, EcMaeB R475A/Y510A; assay: %Activity assay with 5 μM acetyl-CoA; type: biochemical, Escherichia coli
T5 construct: His-tag (C); made in house; host or cells: E. coli BL21(DE3)
Procedure: as §4

EcMaeB R475A = system: T6, EcMaeB R475A; assay: %Activity assay with 5 μM acetyl-CoA; type: biochemical, Escherichia coli
T6 construct: His-tag (C); made in house; host or cells: E. coli BL21(DE3)
Procedure: as §4

EcMaeB R482A/Y510A = system: T7, EcMaeB R482A/Y510A; assay: %Activity assay with 5 μM acetyl-CoA; type: biochemical, Escherichia coli
T7 construct: His-tag (C); made in house; host or cells: E. coli BL21(DE3)
Procedure: as §4

EcMaeB R482A = system: T8, EcMaeB R482A; assay: %Activity assay with 5 μM acetyl-CoA; type: biochemical, Escherichia coli
T8 construct: His-tag (C); made in house; host or cells: E. coli BL21(DE3)
Procedure: as §4

EcMaeB WT = system: T9, EcMaeB WT; assay: %Activity assay with 5 μM acetyl-CoA; type: biochemical, Escherichia coli
T9 construct: His-tag (C); made in house; host or cells: E. coli BL21(DE3)
Procedure: as §4

EcMaeB Y510A = system: T10, EcMaeB Y510A; assay: %Activity assay with 5 μM acetyl-CoA; type: biochemical, Escherichia coli
T10 construct: His-tag (C); made in house; host or cells: E. coli BL21(DE3)
Procedure: as §4

BbMaeB-HD = system: BbMaeB-HD; parameters: method as in PMID 33623032; conditions: earlier study; cited from earlier work
DME = system: DME; parameters: method as in PMID 10407149; conditions: cited from earlier work
TME = system: TME; parameters: method as in PMID 10407149; conditions: cited from earlier work
AbMaeB1 = system: AbMaeB1; parameters: method as in PMID 32485238; conditions: AbMaeB1, compared to EcMaeB and BbMaeB; cited from earlier work
[3] = 5 mM L-malate, 0.5 mM NADP+, 1 μM enzyme
[4] = relative to WT without acetyl-CoA

## CC(=O)SCCNC(=O)CCNC(=O)[C@H](O)C(C)(C)COP(=O)(O)OP(=O)(O)OC[C@H]1O[C@@H](n2cnc3c(N)ncnc32)[C@H](O)[C@@H]1OP(=O)(O)O [acetyl-CoA, acetyl coenzyme A]
EcMaeB [1]
  Hill slope factor derived from the IC50 curve: greater than one
EcMaeB [1]; 5 mM L-malate, 0.5 mM NADP+, 5 mM MgCl2, 100 nM enzyme, 30 °C
  IC50: 102 ± 4.92 µM
BbMaeB-SSB; BbMaeB
  Hill slope factor derived from the IC50 curve: greater than one
BbMaeB-SSB; BbMaeB-SSB, 5 mM L-malate, 0.5 mM NADP+, 5 mM MgCl2, 100 nM enzyme, 30 °C
  IC50: 0.131 ± 0.004 µM
EcMaeB [2]
  mode of inhibition: may follow a non-competitive mode
BbMaeB
  mode of inhibition: non-competitive
EcMaeB R475A/R482A/Y510A
  effect of acetyl-CoA on activity: did not change their activity
EcMaeB R475A/R482A/Y510A; [3]
  NADP^+ production, With Acetyl-CoA: 10.3 ± 0.4 µM/min
EcMaeB R475A/R482A/Y510A; [4]
  Activity (%), With Acetyl-CoA: 39.5 ± 1.4%
EcMaeB R475A/R482A
  effect of acetyl-CoA on activity: did not change their activity
EcMaeB R475A/R482A; [3]
  NADP^+ production, With Acetyl-CoA: 10.7 ± 0.5 µM/min
EcMaeB R475A/R482A; [4]
  Activity (%), With Acetyl-CoA: 40.8 ± 2.0%
EcMaeB R475A/Y510A; [3]
  NADP^+ production, With Acetyl-CoA: 31.9 ± 2.0 µM/min
EcMaeB R475A/Y510A; [4]
  Activity (%), With Acetyl-CoA: 121.9 ± 7.6%
EcMaeB R475A
  effect of acetyl-CoA on activity: insensitive to allosteric inhibition
EcMaeB R475A; [3]
  NADP^+ production, With Acetyl-CoA: 21.6 ± 3.7 µM/min
EcMaeB R475A; [4]
  Activity (%), With Acetyl-CoA: 82.4 ± 14.0%
EcMaeB R482A/Y510A
  effect of acetyl-CoA on activity: did not change their activity
EcMaeB R482A/Y510A; [3]
  NADP^+ production, With Acetyl-CoA: 7.0 ± 0.1 µM/min
EcMaeB R482A/Y510A; [4]
  Activity (%), With Acetyl-CoA: 26.7 ± 0.5%
EcMaeB R482A
  effect of acetyl-CoA on activity: did not change their activity
EcMaeB R482A; [3]
  NADP^+ production, With Acetyl-CoA: 8.4 ± 1.4 µM/min
EcMaeB R482A; [4]
  Activity (%), With Acetyl-CoA: 32.3 ± 5.5%
EcMaeB WT
  effect of acetyl-CoA on activity: reduced the activity by about half
EcMaeB WT; [3]
  NADP^+ production, With Acetyl-CoA: 12.1 ± 2.2 µM/min
EcMaeB WT; [4]
  Activity (%), With Acetyl-CoA: 46.4 ± 8.5%
EcMaeB Y510A
  effect of acetyl-CoA on activity: insensitive to allosteric inhibition
EcMaeB Y510A; [3]
  NADP^+ production, With Acetyl-CoA: 19.4 ± 4.0 µM/min
EcMaeB Y510A; [4]
  Activity (%), With Acetyl-CoA: 74.0 ± 15.4%
BbMaeB-HD
  IC50: 0.453 ± 0.019 µM
DME
  effect on DME activity: inhibited
TME
  allosteric regulation of TME: does not show any allosteric regulation
AbMaeB1
  allosteric inhibition of AbMaeB1: requires higher concentrated acetyl-CoA to show allosteric inhibition
